Test results reported in patent publication US9598423B2 (BRISTOL-MYERS SQUIBB COMPANY, priority 2013, dated 2017).

Columns and labels:
CK1ε = CK1ε (Homo sapiens (Human), UniProt P49674); test: CK1ε kinase assay (Caliper LABCHIP electrophoretic separation of fluoresceinated peptide substrate and product); assay type: biochemical; conditions: 200 pM CK1ε, 50 μM ATP, 1.5 μM peptide substrate, 22 hours at room temperature; read-out: CK1ε (IC50)
Experimental: (§1) CK1ε and CK1δ Kinase Assays
(§2) The kinase assay was performed in V-bottom 384-well plates. […] The reaction was incubated at room temperature for 22 hours and terminated by adding 45 μl of 35 mM EDTA to each sample. The reaction mixture was analyzed on the Caliper LABCHIP®3000 (Caliper, Hopkinton, Mass.) by electrophoretic separation of the unphosphorylated substrate and phosphorylated product. […] Compounds were dissolved at 10 mM in dimethylsulfoxide (DMSO) and evaluated at eleven concentrations. IC50 values were derived by non-linear regression analysis.

CK1δ = CK1δ (Homo sapiens (Human), UniProt P48730); test: CK1δ kinase assay (Caliper LABCHIP electrophoretic separation of fluoresceinated peptide substrate and product); assay type: biochemical; conditions: 200 pM CK1δ, 50 μM ATP, 1.5 μM peptide substrate, 22 hours at room temperature; read-out: CK1δ (IC50)
Experimental: as §1, §2

CK1ε, sequence (P49674 whole entry): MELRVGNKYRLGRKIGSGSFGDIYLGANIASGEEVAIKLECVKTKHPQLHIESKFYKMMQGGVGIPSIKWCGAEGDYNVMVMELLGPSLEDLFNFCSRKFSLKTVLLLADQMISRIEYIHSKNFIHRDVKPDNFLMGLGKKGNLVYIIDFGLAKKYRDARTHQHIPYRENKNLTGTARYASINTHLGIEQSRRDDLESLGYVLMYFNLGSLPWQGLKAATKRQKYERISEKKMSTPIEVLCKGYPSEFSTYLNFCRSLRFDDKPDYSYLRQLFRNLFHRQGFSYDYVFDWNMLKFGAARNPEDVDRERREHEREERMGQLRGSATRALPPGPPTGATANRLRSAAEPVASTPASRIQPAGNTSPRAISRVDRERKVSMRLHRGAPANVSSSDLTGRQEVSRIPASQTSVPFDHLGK
CK1δ, sequence (P48730 whole entry): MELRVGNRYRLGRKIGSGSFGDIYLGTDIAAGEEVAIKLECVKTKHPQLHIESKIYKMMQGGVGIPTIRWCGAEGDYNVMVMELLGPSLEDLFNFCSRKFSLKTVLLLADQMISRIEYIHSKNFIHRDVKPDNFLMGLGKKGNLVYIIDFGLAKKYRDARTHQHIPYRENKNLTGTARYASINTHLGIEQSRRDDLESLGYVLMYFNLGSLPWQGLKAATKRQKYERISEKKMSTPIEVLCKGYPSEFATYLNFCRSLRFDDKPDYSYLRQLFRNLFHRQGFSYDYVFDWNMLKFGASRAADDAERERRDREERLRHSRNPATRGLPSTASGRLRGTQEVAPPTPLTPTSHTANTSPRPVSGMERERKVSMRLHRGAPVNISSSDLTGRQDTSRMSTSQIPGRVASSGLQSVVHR

| SMILES | IC50 (CK1ε) | IC50 (CK1δ) |
| --- | --- | --- |
| N#Cc1ccc(NC(=O)N2Cc3c(C(N)=O)c(-c4ccc(F)c(Cl)c4)nn3CC2C(F)(F)F)cc1 (single isomer, unassigned) [Compound 335, 2-(3-Chloro-4-fluorophenyl)-N^5-(4-cyanophenyl)-6-(trifluoromethyl)-6,7-dihydropyrazolo[1,5-a]pyrazine-3,5(4H)-dicarboxamide] | 100 to 2000 nM | 100 to 2000 nM |
| CC(=O)Nc1cccc(-c2nn3c(c2C(N)=O)CN(C(=O)Nc2ccc(C#N)cc2)CC3)c1 [Compound 288, 2-(3-Acetamidophenyl)-N^5-(4-cyanophenyl)-6,7-dihydropyrazolo[1,5-a] pyrazine-3,5(4H)-dicarboxamide] | 100 to 2000 nM | 100 to 2000 nM |
| Cc1cc(NC(=O)N2CCn3nc(-c4cccc(Cl)c4)c(C(N)=O)c3C2)ccc1C#N [Compound A38, 2-(3-Chlorophenyl)-N^5-(4-cyano-3-methylphenyl)-6,7-dihydropyrazolo[1,5-a]pyrazine-3,5(4H)-dicarboxamide] | 0.01 to 10 nM | 0.01 to 10 nM |
| CC(C)(C)NC(=O)N1CCn2nc(-c3cnc4ccccc4c3)c(C(N)=O)c2C1 [Compound 119, N^5-(tert-Butyl)-2-(quinolin-3-yl)-6,7-dihydropyrazolo[1,5-a]pyrazine-3,5(4H)-dicarboxamide] | 0.01 to 10 nM | 0.01 to 10 nM |
| NC(=O)c1c(-c2cccc(F)c2)nn2c1CN(C(=O)NC1CCCC1)CC2 [Compound 9, N^5-Cyclopentyl-2-(3-fluorophenyl)-6,7-dihydropyrazolo[1,5-a]pyrazine-3,5(4H)-dicarboxamide] | 0.01 to 10 nM | 0.01 to 10 nM |
| Cc1cc(-c2nn3c(c2C(N)=O)CN(C(=O)Nc2ccc4ncsc4c2)CC3)ccc1F [Compound 241, N^5-(Benzo[d]thiazol-6-yl)-2-(4-fluoro-3-methylphenyl)-6,7-dihydropyrazolo[1,5-a] pyrazine-3,5(4H)-dicarboxamide] | 0.01 to 10 nM | 0.01 to 10 nM |

Results, then the compound that gave them:

| IC50 (CK1ε) | IC50 (CK1δ) | SMILES |
| --- | --- | --- |
| 0.01 to 10 nM | 0.01 to 10 nM | COc1cc(F)cc(-c2nn3c(c2C(N)=O)CN(C(=O)Nc2ccc(C#N)cc2)CC3)c1 [Compound 285, N^5-(4-Cyanophenyl)-2-(3-fluoro-5-methoxyphenyl)-6,7-dihydropyrazolo[1,5-a] pyrazine-3,5(4H)-dicarboxamide] |
| 0.01 to 10 nM | 0.01 to 10 nM | NC(=O)c1c(-c2cccc(F)c2)nn2c1CN(C(=O)Nc1ccc(F)cc1)CC2 [Compound 16, 2-(3-Fluorophenyl)-N^5-(4-fluorophenyl)-6,7-dihydropyrazolo[1,5-a]pyrazine-3,5(4H)-dicarboxamide] |
| 0.01 to 10 nM | 0.01 to 10 nM | Cc1ncc(-c2ccc(NC(=O)N3CCn4nc(-c5cccc(Cl)c5)c(C(N)=O)c4C3)cc2)o1 [Compound A47, 2-(3-Chlorophenyl)-N^5-(4-(2-methyloxazol-5-yl)phenyl)-6,7-dihydropyrazolo[1,5-a]pyrazine-3,5(4H)-dicarboxamide] |
| 0.01 to 10 nM | 0.01 to 10 nM | N#Cc1ccc(NC(=O)N2CCn3nc(-c4cc(Cl)c5[nH]ncc5c4)c(C(N)=O)c3C2)cc1F [Compound 316, 2-(7-Chloro-1H-indazol-5-yl)-N^5-(4-cyano-3-fluorophenyl)-6,7-dihydropyrazolo[1,5-a]pyrazine-3,5(4H)-dicarboxamide] |
| 0.01 to 10 nM | 0.01 to 10 nM | NC(=O)c1c(-c2cncc(Cl)c2)nn2c1CN(C(=O)Nc1ccc(Cl)c(Cl)c1)CC2 [Compound 299, 2-(5-Chloropyridin-3-yl)-N^5-(3,4-dichlorophenyl)-6,7-dihydropyrazolo[1,5-a]pyrazine-3,5(4H)-dicarboxamide] |
| 0.01 to 10 nM | 0.01 to 10 nM | Cc1cc(NC(=O)N2CCn3nc(-c4cc(F)c5cn[nH]c5c4)c(C(N)=O)c3C2)ccc1C#N [Compound 325, N^5-(4-Cyano-3-methylphenyl)-2-(4-fluoro-1H-indazol-6-yl)-6,7-dihydropyrazolo[1,5-a]pyrazine-3,5(4H)-dicarboxamide] |
